Earlier results in publication PMC4369175 (Journal of photochemistry and photobiology. B, Biology, 2015).
Like-named read-outs stand apart in the source and are kept apart here.

Assays:
[1] = standard value

## CC/N=c1\cc2oc3cc(NCC)c(C)cc3c(-c3ccccc3C(=O)OCC)c-2cc1C [Rhodamine 6G]
[1]; in ethanol
  Φf of fluorescence standard: 0.95

## CN(C)c1ccc2nc3ccc(=[N+](C)C)cc-3sc2c1 [methylene blue]
other
  ΦΔ singlet oxygen quantum yield of the reference standard: 0.52
[1]; in methanol
  Φf of fluorescence standard: 0.03
